According to ChEMBL document CHEMBL1152581, “Delta-di-carboxybutyl phosphoramidate of 2'-deoxycytidine-5'-monophosphate as substrate for DNA polymerization by HIV-1 reverse transcriptase” (Bioorg Med Chem, 2009):
The source made the active and inactive calls. No cut-off for these calls is given here.

How the values were obtained:
[1] = biological target: Human immunodeficiency virus type 1 reverse transcriptase (Human immunodeficiency virus 1) (UniProt Q72547); experiment: Activity at HIV1 reverse transcriptase assessed as elongation of DNA primer after 60 mins at 500 uM by single nucleotide incorporation assay
[2] = biological target: Human immunodeficiency virus type 1 reverse transcriptase (Human immunodeficiency virus 1) (UniProt Q72547); experiment: Activity at HIV1 reverse transcriptase assessed as elongation of DNA primer up to 120 mins at 500 uM by single nucleotide incorporation assay
[3] = biological target: Human immunodeficiency virus type 1 reverse transcriptase (Human immunodeficiency virus 1) (UniProt Q72547); experiment: Activity at HIV1 reverse transcriptase assessed as elongation of DNA primer up to 120 mins at 1 mM by single nucleotide incorporation assay
[4] = biological target: Human immunodeficiency virus type 1 reverse transcriptase (Human immunodeficiency virus 1) (UniProt Q72547); experiment: Activity at HIV1 reverse transcriptase assessed as elongation of DNA primer after 60 mins by single nucleotide incorporation assay

Compound	Activity [1] [%]	Activity [2] [%]	Activity [3] [%]	Activity [4]
Nc1ccn([C@H]2C[C@H](O)[C@@H](COP(=O)(O)NCCCC(C(=O)O)C(=O)O)O2)c(=O)n1	54	60	60	–
Nc1ccn([C@@H]2O[C@H](COP(=O)(O)NCCCC(C(=O)O)C(=O)O)C[C@H]2O)c(=O)n1	–	–	–	inactive
Nc1ncnc2c1ncn2[C@H]1C[C@H](O)[C@@H](COP(=O)(O)N[C@@H](CC(=O)O)C(=O)O)O1	82	–	–	–
